# Source: US7745399B2, “Hsp70 peptide stimulating natural killer (NK) cell activity and uses thereof” (multimmune GmbH, priority 2000, dated 2010)
# Read-outs that look alike come from different tables or passages of the source.
# Legend:
# NK cells [1] = assay: NK cell stimulation (3H thymidine uptake assays and 51Cr release assays); type: cell-based, human
# Experimental: (§1) The proliferative capacity of NK and T cells against different Hsp70 peptides and Hsp70 protein (loc. sit) was determined in a standard ^3H thymidine uptake assay (22). Viable cells (5×10^4 cells/100 μl) were seeded in 96-well flat-bottom microtiter plates (Greiner Nuertingen, Germany) in supplemented RPMI-1640 medium containing 100 IU IL-2 and Hsp70 protein (10 μg/ml) or different amounts of Hsp70 peptides ranging from 0.02 up to 10 μg/ml. As an internal control the proliferation against IL-2 alone was measured in parallel. After a 24 or 48 hour incubation period the cells were pulsed with ^3H thymidine (1 μCi/well) and the total uptake was measured following an 18 hour incubation period at 37° C. in a liquid scintillation counter (Beckmann instruments, Munich, Germany).
# The cytolytic activity of NK cells was monitored in a standard ^51Cr assay (23). Dilutions of the effector cells were incubated with ^51Cr-labeled (100 μCi of Na^51CrO4, NEN-Dupont, Boston, Mass.) tumor target cells (3×10^3 cells per well) in duplicates at a final volume of 200 μl RPMI-1640 medium supplemented with 10% FCS at 37° C. for 4 h in 96-well U-bottom plates (Greiner, Nuertingen, Germany). After the incubation period supernatants were collected and the radioactivity was counted in a γ-counter (Packard Instruments). The percentage of specific lysis was determined according to the equation: (experimental release−spontaneous release)/(maximum release−spontaneous release)×100. The percentage spontaneous release was always<15% for each target cell line.
# NK cells [2] = settings: Table II, complete proteins; cited from earlier work
# CX− tumor cells = assay: 51Cr release assay (CML), cytolytic activity of stimulated NK cells against CX-; type: cell-based, human; settings: NK cells stimulated 4 days with IL-2 100 IU/ml plus peptide 2 μg/ml
# Experimental: (§2) Cytolytic activity of NK cells stimulated with IL-2 alone or with IL-2 plus the 14-mer peptide TKD or with IL-2 plus the 8-mer peptide NLL. Cytolytic activity of NK cells either stimulated with low dose IL-2 (100 IU/ml) alone or with IL-2 plus the 14-mer peptide TKD (2 μg/ml) or with IL-2 plus the 8-mer peptide NLL (2 μg/ml) for 4 days. As target cells ^51Cr labeled CX+ (FIG. 2a) and CX− (FIG. 2b) tumor cells, that differ with respect to their capability to express Hsp70 on the plasma membrane, were used. The results are expressed as the percentage of specific lysis at varying E:T ratios ranging from 2:1 up to 40:1. […]
# (§3) The colon carcinoma sublines CX+ (>90% Hsp70 positive cells) and CX− (<20% Hsp70 positive cells) described in patent application EP-A2-084 300 5 and originally derived from CX2 colon carcinoma cells (Tumorzentrum Heidelberg, TZB 610005, Germany) that differ with respect to their capacity to express Hsp70 on their plasma membrane were cultured at 37° C., 5% CO2 in RPMI-1640 medium (Gibco, Eggenstein, Germany) supplemented with heat-inactivated 10% FCS (Gibco) and 2 mM L-glutamine and antibiotics (penicillin/streptomycin). […] All cell lines were free from mycoplasma contamination as determined by repeated testing using the 6-methylpurin desoxyribosid assay (Boehringer Mannheim, Germany).
# (§4) The cytolytic activity of NK cells was monitored in a standard ^51Cr assay (23). […]
# NK cells [3] = assay: FACScan phenotypic characterization of stimulated NK cells; type: cell-based, human; settings: NK cells stimulated with IL-2 plus peptide 2 μg/ml
# Experimental: Cytolytic activity of NK cells stimulated with IL-2 alone or with IL-2 plus the 14-mer peptide TKD or with IL-2 plus the 8-mer peptide NLL. Cytolytic activity of NK cells either stimulated with low dose IL-2 (100 IU/ml) alone or with IL-2 plus the 14-mer peptide TKD (2 μg/ml) or with IL-2 plus the 8-mer peptide NLL (2 μg/ml) for 4 days. As target cells ^51Cr labeled CX+ (FIG. 2a) and CX− (FIG. 2b) tumor cells, that differ with respect to their capability to express Hsp70 on the plasma membrane, were used. The results are expressed as the percentage of specific lysis at varying E:T ratios ranging from 2:1 up to 40:1. The percentage spontaneous release for each tumor target cell line was less than 20%.
# Directly fluorescein-conjugated mAb (CD3FITC/CD16/CD56^PE, Becton Dickinson, Heidelberg, Germany) were added to cell suspensions (0.1×10^6 cells), incubated for 20 min on ice, washed and analysed on a FACScan instrument (Becton Dickinson, Heidelberg, Germany). The percentage of positively stained cells was defined as the number of specifically stained, viable (propidium-iodide negative) cells minus the number of cells stained with an isotype matched control antibody on a FACScan instrument (Becton Dickinson, Heidelberg, Germany).
# T cells = assay: 3H thymidine uptake assay, proliferative response of T cells; type: cell-based, human; settings: peptides plus low dose IL-2 (100 IU/ml), any tested concentration
# Experimental: (§5) Briefly, monocyte depleted peripheral blood lymphocytes (PBL) were isolated from buffy coats of healthy human volunteers (Multhoff et al., 1995a). NK cells were purified by adherence selection following a modified protocol of Vujanovic (1993). T cells remain in the supernatant cell population.
# as §1
# NK cells [4] = assay: 3H thymidine uptake assay, proliferative response of NK cells; type: cell-based, human; settings: IL-2 100 IU/ml plus peptide 0.02 up to 8 μg/ml
# Experimental: Comparison of the proliferative response of NK cells against Hsp70 peptides. NK cells were stimulated either with IL-2 (100 IU/ml) alone or with IL-2 plus peptides NLL (8-mer, FIG. 1a), TKD (14-mer, FIG. 1b) and GIPP (13 mer, FIG. 1c) at concentrations 0.02, 0.2, 2, 4 and 8 μg/ml. As a positive control NK cells were stimulated with rHsp70 protein at a concentration of 10 μg/ml. The proliferative response of NK cells was measured 72 h after peptide incubation and an 18 h incubation period with ^3H thymidine (1 μCi/ml). In FIG. 1e stimulation with TKD in a more refined scale between 0.1 and 3 μg is shown. […] Values are given as the means of four independent experiments+/−SD.
# as §5, §1
# CX+ tumor cells = assay: 51Cr release assay (CML), cytolytic activity of stimulated NK cells against CX+; type: cell-based, human; settings: NK cells stimulated 4 days with IL-2 100 IU/ml plus peptide 2 μg/ml, compared to IL-2 alone or IL-2 plus NLL
# Experimental: as §2, §3, §4
# NK cells [5] = settings: cited from earlier work
# [6] = Table III, peptides only, 3H thymidine uptake and 51Cr release assays
substance,measurement,setting,value
"A A D N K S L G Q F N L D G (AADNKSLGQFNLDG) [DNAK, peptide, Dnak aa 447-460]",NK cell stimulation,NK cells [1]; [6],no
Dank (complete protein): DnaK complete protein,NK cell stimulation,NK cells [2],no
"EGERAMTKDNNLLGRFELSG (EGERAMTKDNNLLGRFELSG) [Hsp70 (peptide) 441-463, 20 mer peptide of Hsp70]",NK cell stimulation,"NK cells [1]; Table II, peptides",yes
"G E R A M T K D N N L L G R F E L S G (GERAMTKDNNLLGRFELSG) [Hsp70 445-463, peptide, Hsp70 aa 445-463]",NK cell stimulation,NK cells [1]; [6],yes
Hsc70 (complete protein): Hsc70 complete protein,NK cell stimulation,NK cells [2],no
"Hsp70hom (complete protein): testis specific member of the Hsp70 family, complete protein",NK cell stimulation,NK cells [2],yes
NLLGRFEL,lysis of CX− tumor cells,CX− tumor cells,no significant differences
same,NK cell stimulation,"NK cells [1]; Table II, peptides",no
same,NK cell stimulation,NK cells [1]; [6],no
same,CD3 positive cells,NK cells [3],8%
same,CD16/56 positive cells,NK cells [3],80%
same,T cell growth,T cells,"none of the three peptides NLL, GIPP or TKD stimulates T cell growth"
same,proliferative capacity of NK cells,NK cells [4],did not stimulate
"NLLGRFELSGIPP [13-mer C-terminal extended peptide, Hsp70 aa 454-466]",NK cell stimulation,"NK cells [1]; Table II, peptides",no
same,NK cell stimulation,NK cells [1]; [6],no
same,T cell growth,T cells,"none of the three peptides NLL, GIPP or TKD stimulates T cell growth"
same,proliferative capacity of NK cells,NK cells [4],did not stimulate
"T K D N N L L G K F E L T G (TKDNNLLGKFELTG) [Hsc70, peptide, Hsc70 aa 450-463]",NK cell stimulation,NK cells [1]; [6],no
"T K D N N L L G R F E L (TKDNNLLGRFEL) [TKD12, peptide, Hsp70 aa 450-461]",NK cell stimulation,NK cells [1]; [6],no
"T K D N N L L G R F E L S G (TKDNNLLGRFELSG) [14-mer peptide, Hsp70 aa 450-463]",lysis of CX− tumor cells,CX− tumor cells,no significant differences
same,NK cell stimulation,"NK cells [1]; Table II, peptides",yes
same,NK cell stimulation,NK cells [1]; [6],yes
same,CD3 positive cells,NK cells [3],6%
same,CD16/56 positive cells,NK cells [3],79%
same,T cell growth,T cells,"none of the three peptides NLL, GIPP or TKD stimulates T cell growth"
same,lytic activity against Hsp70 expressing CX+ tumor cells,CX+ tumor cells,significantly enhanced lytic activity
same,proliferative capacity of NK cells,NK cells [4],comparable immunostimulatory capacity like full length Hsp70 protein
"T K D N N L L G R F E L T G (TKDNNLLGRFELTG) [HOM, peptide, Hsp70hom aa 450-463]",NK cell stimulation,NK cells [1]; [6],low
rHsp70: Human recombinant Hsp70 protein from StressGen (SPP-755),optimal stimulatory dose,NK cells [5]; defined previously,10 µg/mL
same,proliferative response of human NK cells,"NK cells [5]; low dose IL-2 (100 IU/ml) plus protein, compared to IL-2 only",increase the proliferative response
